# Measured values taken from PubChem BioAssay AID342 (DTP/NCI, 2004).
# “And” between values parts separate entries of the source, which are not always exact repeats. Equal entries are not always repeated.
# Tested on: Swiss mice, Sarcoma 180 sc, mean tumor weight T/C
# Assay: NCI In Vivo Anticancer Drug Screen. Data for tumor model Sarcoma 180 (subcutaneous) in Swiss mice
# Conditions: endpoint: mean tumor weight, higher = larger tumour
# Protocol: The antitumor activity of compounds was measured in mice bearing transplantable tumors. Survival or tumor size were measured and the results are expressed as the measurement made in the treated group (T) divided by the measurement made in the vehicle treated control group (C). The tumor model used in this assay is Sarcoma 180 (subcutaneous) in Swiss mice
# [1] = dose: 25.0 mg/kg/injection, schedule: Q01DX007 (ip), vehicle: saline
smiles,measurement,setting,value
CC1CCOS(=O)O1 (stereo not drawn),T/C,"dose: 6.25 mg/kg/injection, schedule: Q01DX007 (ip), vehicle: olive oil, sesame oil, peanut oil",67 % of control
same,T/C,"dose: 6.25 mg/kg/injection, schedule: Q01DX007 (ip), vehicle: propolene glycol",62 % of control
same,T/C,"dose: 6.25 mg/kg/injection, schedule: Q01DX007 (oral), vehicle: olive oil, sesame oil, peanut oil",81 % of control
same,T/C,"dose: 6.25 mg/kg/injection, schedule: Q01DX007 (sc), vehicle: olive oil, sesame oil, peanut oil",81 % of control
same,T/C,"dose: 12.5 mg/kg/injection, schedule: Q01DX007 (ip), vehicle: olive oil, sesame oil, peanut oil",85 % of control
same,T/C,"dose: 12.5 mg/kg/injection, schedule: Q01DX007 (ip), vehicle: propolene glycol",55 % of control
same,T/C,"dose: 12.5 mg/kg/injection, schedule: Q01DX007 (oral), vehicle: olive oil, sesame oil, peanut oil",106 % of control
same,T/C,"dose: 12.5 mg/kg/injection, schedule: Q01DX007 (oral), vehicle: propolene glycol",74 % of control
same,T/C,"dose: 12.5 mg/kg/injection, schedule: Q01DX007 (sc), vehicle: olive oil, sesame oil, peanut oil",97 % of control
same,T/C,"dose: 25.0 mg/kg/injection, schedule: Q01DX007 (ip), vehicle: olive oil, sesame oil, peanut oil",75 % of control
same,T/C,"dose: 25.0 mg/kg/injection, schedule: Q01DX007 (ip), vehicle: propolene glycol",62 % of control
same,T/C,"dose: 25.0 mg/kg/injection, schedule: Q01DX007 (oral), vehicle: olive oil, sesame oil, peanut oil",79 % of control
same,T/C,"dose: 25.0 mg/kg/injection, schedule: Q01DX007 (oral), vehicle: propolene glycol",80 % of control
same,T/C,"dose: 25.0 mg/kg/injection, schedule: Q01DX007 (sc), vehicle: olive oil, sesame oil, peanut oil",65 % of control
same,T/C,"dose: 36.0 mg/kg/injection, schedule: Q01DX007 (ip), vehicle: carboxymethylcellulose (CMC)",102 % of control
same,T/C,"dose: 50.0 mg/kg/injection, schedule: Q01DX007 (ip), vehicle: olive oil, sesame oil, peanut oil",48 % of control
same,T/C,"dose: 50.0 mg/kg/injection, schedule: Q01DX007 (ip), vehicle: propolene glycol",56 % of control
same,T/C,"dose: 50.0 mg/kg/injection, schedule: Q01DX007 (oral), vehicle: olive oil, sesame oil, peanut oil",71 % of control
same,T/C,"dose: 50.0 mg/kg/injection, schedule: Q01DX007 (oral), vehicle: propolene glycol",81 % of control
same,T/C,"dose: 50.0 mg/kg/injection, schedule: Q01DX007 (sc), vehicle: olive oil, sesame oil, peanut oil",66 % of control
same,T/C,"dose: 54.0 mg/kg/injection, schedule: Q01DX007 (ip), vehicle: carboxymethylcellulose (CMC)",84 % of control
same,T/C,"dose: 81.0 mg/kg/injection, schedule: Q01DX007 (ip), vehicle: carboxymethylcellulose (CMC)",57 % of control
C[C@@H](N)[C@@H](O)c1ccccc1,T/C,"dose: 3.13 mg/kg/injection, schedule: Q01DX007 (ip), vehicle: saline",89 % of control
same,T/C,"dose: 6.25 mg/kg/injection, schedule: Q01DX007 (ip), vehicle: saline",91 % of control
same,T/C,"dose: 12.5 mg/kg/injection, schedule: Q01DX007 (ip), vehicle: saline",51 % of control
same,T/C,[1],52 % of control
Nc1nc(SCc2ccccc2)c2ncn(CCCl)c2n1,T/C,"dose: 56.0 mg/kg/injection, schedule: Q01DX007 (ip), vehicle: carboxymethylcellulose (CMC)",36 % of control and 55 % of control
same,T/C,"dose: 83.0 mg/kg/injection, schedule: Q01DX007 (ip), vehicle: carboxymethylcellulose (CMC)",35 % of control and 41 % of control
same,T/C,"dose: 125.0 mg/kg/injection, schedule: Q01DX007 (ip), vehicle: carboxymethylcellulose (CMC)",12 % of control and 18 % of control
CCc1nc(N)nc(N)c1-c1ccc(Cl)cc1,T/C,"dose: 6.25 mg/kg/injection, schedule: Q01DX007 (ip), vehicle: carboxymethylcellulose (CMC)",114 % of control
same,T/C,"dose: 12.5 mg/kg/injection, schedule: Q01DX007 (ip), vehicle: carboxymethylcellulose (CMC)",88 % of control
same,T/C,"dose: 25.0 mg/kg/injection, schedule: Q01DX007 (ip), vehicle: carboxymethylcellulose (CMC)",114 % of control
same,T/C,"dose: 50.0 mg/kg/injection, schedule: Q01DX007 (ip), vehicle: carboxymethylcellulose (CMC)",77 % of control
C=CCCCCCCCCC(=O)O,T/C,"dose: 7.8 mg/kg/injection, schedule: Q01DX007 (ip), vehicle: saline",109 % of control
same,T/C,"dose: 15.6 mg/kg/injection, schedule: Q01DX007 (ip), vehicle: saline",118 % of control
same,T/C,"dose: 31.3 mg/kg/injection, schedule: Q01DX007 (ip), vehicle: saline",122 % of control
same,T/C,"dose: 125.0 mg/kg/injection, schedule: Q01DX007 (ip), vehicle: saline",90 % of control
C[C@]12CCC(=O)C=C1CC[C@H]1[C@@H]3CC[C@](O)(C(=O)CF)[C@@]3(C)C[C@H](O)[C@@]12F,T/C,"dose: 20.5 mg/kg/injection, schedule: Q#A X014 (sc), vehicle: steriod suspending solution",54 % of control
same,T/C,"dose: 31.0 mg/kg/injection, schedule: Q#A X014 (sc), vehicle: steriod suspending solution",62 % of control
same,T/C,"dose: 46.5 mg/kg/injection, schedule: Q#A X014 (sc), vehicle: steriod suspending solution",48 % of control
NC1=CC(=O)c2ccccc2C1=O,T/C,"dose: 31.0 mg/kg/injection, schedule: Q01DX007 (ip), vehicle: other",73 % of control
same,T/C,"dose: 62.0 mg/kg/injection, schedule: Q01DX007 (ip), vehicle: other",83 % of control
C[C@@H]1C[C@](O)([C@@H](C)Cl)C(=O)O[C@@H]2CCN3CC=C(COC(=O)[C@]1(C)O)[C@H]23,T/C,[1],74 % of control
O=C(Nc1ccc(NC2=NCCN2)cc1)c1ccc(C(=O)Nc2ccc(NC3=NCCN3)cc2)cc1,T/C,"dose: 2.0 mg/kg/injection, schedule: Q01DX007 (ip), vehicle: saline",109 % of control
same,T/C,"dose: 4.0 mg/kg/injection, schedule: Q01DX007 (ip), vehicle: saline",95 % of control
same,T/C,"dose: 8.0 mg/kg/injection, schedule: Q01DX007 (ip), vehicle: saline",97 % of control
same,T/C,"dose: 16.0 mg/kg/injection, schedule: Q01DX007 (ip), vehicle: saline",43 % of control
O=C(Nc1ccc2cc(S(=O)(=O)O)ccc2c1)c1ccc(N=Nc2c(S(=O)(=O)O)cc3cc(S(=O)(=O)O)cc(NC(=O)c4ccccc4)c3c2O)cc1,T/C,"dose: 41.5 mg/kg/injection, schedule: Q#A X014 (ip), vehicle: methylcellulose (MC)",52 % of control and 61 % of control and 77 % of control
same,T/C,"dose: 93.5 mg/kg/injection, schedule: Q#A X014 (ip), vehicle: methylcellulose (MC)",44 % of control and 63 % of control
c1ccc2[nH]cnc2c1,T/C,"dose: 31.25 mg/kg/injection, schedule: Q#A X014 (ip), vehicle: carboxymethylcellulose (CMC)",52 % of control
same,T/C,"dose: 37.12 mg/kg/injection, schedule: Q01DX007 (ip), vehicle: carboxymethylcellulose (CMC)",84 % of control
same,T/C,"dose: 46.25 mg/kg/injection, schedule: Q01DX007 (ip), vehicle: carboxymethylcellulose (CMC)",103 % of control
same,T/C,"dose: 62.5 mg/kg/injection, schedule: Q#A X014 (ip), vehicle: carboxymethylcellulose (CMC)",95 % of control
same,T/C,"dose: 74.25 mg/kg/injection, schedule: Q01DX007 (ip), vehicle: carboxymethylcellulose (CMC)",76 % of control
same,T/C,"dose: 92.5 mg/kg/injection, schedule: Q01DX007 (ip), vehicle: carboxymethylcellulose (CMC)",94 % of control
same,T/C,"dose: 125.0 mg/kg/injection, schedule: Q#A X014 (ip), vehicle: carboxymethylcellulose (CMC)",84 % of control
same,T/C,"dose: 148.5 mg/kg/injection, schedule: Q01DX007 (ip), vehicle: carboxymethylcellulose (CMC)",76 % of control
same,T/C,"dose: 185.0 mg/kg/injection, schedule: Q01DX007 (ip), vehicle: carboxymethylcellulose (CMC)",89 % of control
same,T/C,"dose: 250.0 mg/kg/injection, schedule: Q#A X014 (ip), vehicle: carboxymethylcellulose (CMC)",51 % of control
same,T/C,"dose: 297.0 mg/kg/injection, schedule: Q01DX007 (ip), vehicle: carboxymethylcellulose (CMC)",62 % of control
CC1(C)O[C@@H]2C[C@H]3[C@@H]4CCC5=CC(=O)CC[C@]5(C)[C@@]4(F)[C@@H](O)C[C@]3(C)[C@]2(C(=O)CO)O1,T/C,"dose: 2.2 mg/kg/injection, schedule: Q#A X014 (sc), vehicle: steriod suspending solution",53 % of control and 63 % of control
same,T/C,"dose: 2.3 mg/kg/injection, schedule: Q01DX007 (sc), vehicle: steriod suspending solution",61 % of control
same,T/C,"dose: 3.3 mg/kg/injection, schedule: Q#A X014 (sc), vehicle: steriod suspending solution",62 % of control
same,T/C,"dose: 3.5 mg/kg/injection, schedule: Q01DX007 (sc), vehicle: steriod suspending solution",47 % of control
same,T/C,"dose: 5.0 mg/kg/injection, schedule: Q#A X014 (sc), vehicle: steriod suspending solution",27 % of control
same,T/C,"dose: 5.3 mg/kg/injection, schedule: Q01DX007 (sc), vehicle: steriod suspending solution",43 % of control
same,T/C,"dose: 7.5 mg/kg/injection, schedule: Q#A X014 (sc), vehicle: steriod suspending solution",24 % of control
same,T/C,"dose: 12.0 mg/kg/injection, schedule: Q01DX007 (sc), vehicle: steriod suspending solution",36 % of control
same,T/C,"dose: 27.0 mg/kg/injection, schedule: Q01DX007 (sc), vehicle: steriod suspending solution",39 % of control and 40 % of control
same,T/C,"dose: 40.0 mg/kg/injection, schedule: Q01DX007 (sc), vehicle: steriod suspending solution",32 % of control
same,T/C,"dose: 60.0 mg/kg/injection, schedule: Q01DX007 (sc), vehicle: steriod suspending solution",24 % of control
same,T/C,"dose: 90.0 mg/kg/injection, schedule: Q01DX007 (sc), vehicle: steriod suspending solution",19 % of control and 30 % of control
same,T/C,"dose: 130.0 mg/kg/injection, schedule: Q01DX007 (sc), vehicle: steriod suspending solution",16 % of control
